Test results from patent US20160375006A1, “USES OF PARALOG-SELECTIVE INHIBITORS OF GSK3 KINASES” (priority 2012, published 2016).
Like-named read-outs stand apart in the source and are kept apart here.

Assays:
RSK3 = target: T1, RSK3 (Homo sapiens, UniProt Q15349); test: Carna kinase panel; type: biochemical
T1 construct: purchased Carna Biosciences
Experimental: (§1) This was completed utilizing one of two assays depending on the kinase being examined.
(§2) A solution of IMAP binding reagent (IMAP Screening Express kit; Molecular Devices) (60 μL) was added to each well and incubated for 30 minutes.
(§3) A solution of termination buffer (QuickScout Screening assist MSA; Carna Biosciences) (60 μL) was added to each well. The entire reaction mixture was then applied to a LabChip3000 system (Caliper Life Science) and the product and substrate peptide peaks were separated and quantified.

GSK3β = GSK3β (Homo sapiens, UniProt P49841)
Experimental: as §1, §2, §3
(§4) The assay utilized was identical to that of the single point inhibitory activity determination (MSA) but run in dose response. […] A solution of termination buffer (QuickScout Screening assist MSA; Carna Biosciences) (60 μL) was added to each well. The entire reaction mixture was then applied to a LabChip3000 system (Caliper Life Science) and the product and substrate peptide peaks were separated and quantified.

FLT3 = FLT3 (Homo sapiens, UniProt P36888)
RAF1_Cascade = RAF1_Cascade (Homo sapiens, UniProt P04049)
Experimental: as §1, §2, §3

TRKC = TRKC (Homo sapiens, UniProt Q16288)
Experimental: as §1, §2, §3, §4

PLK2 = PLK2 (Homo sapiens, UniProt Q9NYY3)
Experimental: as §1, §2, §3, §4

IRAK1 = IRAK1 (Homo sapiens, UniProt P51617)
Sequence of IRAK1 (P51617 whole entry): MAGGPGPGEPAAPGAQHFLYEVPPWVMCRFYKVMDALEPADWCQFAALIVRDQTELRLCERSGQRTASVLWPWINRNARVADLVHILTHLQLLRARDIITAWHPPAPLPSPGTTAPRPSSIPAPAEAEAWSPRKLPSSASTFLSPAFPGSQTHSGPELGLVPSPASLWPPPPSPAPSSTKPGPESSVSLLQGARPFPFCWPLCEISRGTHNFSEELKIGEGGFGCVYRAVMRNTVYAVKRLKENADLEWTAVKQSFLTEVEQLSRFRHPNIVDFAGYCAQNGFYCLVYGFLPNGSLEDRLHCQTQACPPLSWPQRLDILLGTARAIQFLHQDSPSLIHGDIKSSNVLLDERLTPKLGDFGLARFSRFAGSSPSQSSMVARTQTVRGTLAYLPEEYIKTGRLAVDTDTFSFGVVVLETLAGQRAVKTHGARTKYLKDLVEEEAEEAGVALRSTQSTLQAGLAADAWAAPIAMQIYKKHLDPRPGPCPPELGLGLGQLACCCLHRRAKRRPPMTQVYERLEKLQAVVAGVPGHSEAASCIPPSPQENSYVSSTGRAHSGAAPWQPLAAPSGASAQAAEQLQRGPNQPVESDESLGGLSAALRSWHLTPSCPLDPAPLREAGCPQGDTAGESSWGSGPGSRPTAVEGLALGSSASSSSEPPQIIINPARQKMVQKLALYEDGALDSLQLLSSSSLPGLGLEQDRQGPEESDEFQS
Experimental: as §1, §2, §3, §4

MAP2K1_Cascade = MAP2K1_Cascade (Homo sapiens, UniProt Q02750)
Experimental: as §1, §2, §3, §4

MAP3K1_Cascade = MAP3K1_Cascade (Homo sapiens, UniProt Q13233)
Experimental: as §1, §2, §3, §4

Erk2 = Erk2 (Homo sapiens, UniProt P28482)
Experimental: as §1, §2, §3

SGK2 = SGK2 (Homo sapiens, UniProt Q9HBY8)
Experimental: as §1, §2, §3, §4

KIT = KIT (Homo sapiens, UniProt P10721)
Sequence of KIT (P10721 26-976): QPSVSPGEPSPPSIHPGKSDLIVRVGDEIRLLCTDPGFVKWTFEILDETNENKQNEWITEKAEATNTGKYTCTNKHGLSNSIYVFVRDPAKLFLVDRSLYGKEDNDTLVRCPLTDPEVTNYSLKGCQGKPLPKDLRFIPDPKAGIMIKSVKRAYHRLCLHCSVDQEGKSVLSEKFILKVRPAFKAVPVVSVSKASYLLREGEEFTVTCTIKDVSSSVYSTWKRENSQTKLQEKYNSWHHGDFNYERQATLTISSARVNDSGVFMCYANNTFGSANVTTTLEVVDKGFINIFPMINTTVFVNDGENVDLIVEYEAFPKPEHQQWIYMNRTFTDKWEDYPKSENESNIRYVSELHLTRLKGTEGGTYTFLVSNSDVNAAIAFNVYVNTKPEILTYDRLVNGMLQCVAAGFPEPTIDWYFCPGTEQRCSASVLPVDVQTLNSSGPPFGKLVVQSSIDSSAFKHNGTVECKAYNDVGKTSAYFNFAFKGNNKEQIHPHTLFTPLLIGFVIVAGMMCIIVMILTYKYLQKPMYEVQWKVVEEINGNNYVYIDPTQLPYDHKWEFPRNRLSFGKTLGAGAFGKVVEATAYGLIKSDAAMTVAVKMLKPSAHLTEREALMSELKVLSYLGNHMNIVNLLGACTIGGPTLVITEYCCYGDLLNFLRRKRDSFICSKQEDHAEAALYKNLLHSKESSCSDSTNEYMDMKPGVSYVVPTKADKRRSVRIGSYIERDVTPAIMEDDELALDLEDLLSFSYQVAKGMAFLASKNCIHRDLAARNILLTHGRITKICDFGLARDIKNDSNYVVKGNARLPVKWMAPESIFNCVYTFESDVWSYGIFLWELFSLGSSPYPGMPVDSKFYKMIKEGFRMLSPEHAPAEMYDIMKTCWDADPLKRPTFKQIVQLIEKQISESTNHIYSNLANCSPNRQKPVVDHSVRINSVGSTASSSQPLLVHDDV
Experimental: as §1, §2, §3

LYNa = LYNa (Homo sapiens, UniProt P07948)
Experimental: as §1, §2, §3

TEC = TEC (Homo sapiens, UniProt P42680)
Experimental: as §1, §2, §3, §4

HIPK2 = HIPK2 (Homo sapiens, UniProt Q9H2X6)
Experimental: as §1, §2, §3, §4

DCAMKL2 = DCAMKL2 (Homo sapiens, UniProt Q8N568)
Experimental: as §1, §2, §3, §4

DDR2 = DDR2 (Homo sapiens, UniProt Q16832)
DDR1 = DDR1 (Homo sapiens, UniProt Q08345)
Experimental: as §1, §2, §3, §4

CK1γ3 = CK1γ3 (Homo sapiens, UniProt Q9Y6M4)
Experimental: as §1, §2, §3, §4

SRPK2 = SRPK2 (Homo sapiens, UniProt P78362)
Experimental: as §2, §3, §4

RET(S891A) = RET(S891A) (Homo sapiens, UniProt P07949, S891A)
Experimental: as §1, §2, §3, §4

JNK1 = JNK1 (Homo sapiens, UniProt P45983)
Experimental: as §1, §2, §3, §4

IKKε = IKKε (Homo sapiens, UniProt Q14164)
Experimental: as §1, §2, §3, §4

ACK = ACK (Homo sapiens, UniProt Q07912)
Experimental: as §1, §2, §3, §4

PKCε = PKCε (Homo sapiens, UniProt Q02156)
Experimental: as §1, §2, §3, §4

CaMK2γ = CaMK2γ (Homo sapiens, UniProt Q13555)
Experimental: as §1, §2, §3, §4

RET = RET (Homo sapiens, UniProt P07949)
Experimental: as §1, §2, §3

ROCK2 = ROCK2 (Homo sapiens, UniProt O75116)
Experimental: as §1, §2, §3

DAPK1 = DAPK1 (Homo sapiens, UniProt P53355)
Sequence of DAPK1 (P53355 whole entry): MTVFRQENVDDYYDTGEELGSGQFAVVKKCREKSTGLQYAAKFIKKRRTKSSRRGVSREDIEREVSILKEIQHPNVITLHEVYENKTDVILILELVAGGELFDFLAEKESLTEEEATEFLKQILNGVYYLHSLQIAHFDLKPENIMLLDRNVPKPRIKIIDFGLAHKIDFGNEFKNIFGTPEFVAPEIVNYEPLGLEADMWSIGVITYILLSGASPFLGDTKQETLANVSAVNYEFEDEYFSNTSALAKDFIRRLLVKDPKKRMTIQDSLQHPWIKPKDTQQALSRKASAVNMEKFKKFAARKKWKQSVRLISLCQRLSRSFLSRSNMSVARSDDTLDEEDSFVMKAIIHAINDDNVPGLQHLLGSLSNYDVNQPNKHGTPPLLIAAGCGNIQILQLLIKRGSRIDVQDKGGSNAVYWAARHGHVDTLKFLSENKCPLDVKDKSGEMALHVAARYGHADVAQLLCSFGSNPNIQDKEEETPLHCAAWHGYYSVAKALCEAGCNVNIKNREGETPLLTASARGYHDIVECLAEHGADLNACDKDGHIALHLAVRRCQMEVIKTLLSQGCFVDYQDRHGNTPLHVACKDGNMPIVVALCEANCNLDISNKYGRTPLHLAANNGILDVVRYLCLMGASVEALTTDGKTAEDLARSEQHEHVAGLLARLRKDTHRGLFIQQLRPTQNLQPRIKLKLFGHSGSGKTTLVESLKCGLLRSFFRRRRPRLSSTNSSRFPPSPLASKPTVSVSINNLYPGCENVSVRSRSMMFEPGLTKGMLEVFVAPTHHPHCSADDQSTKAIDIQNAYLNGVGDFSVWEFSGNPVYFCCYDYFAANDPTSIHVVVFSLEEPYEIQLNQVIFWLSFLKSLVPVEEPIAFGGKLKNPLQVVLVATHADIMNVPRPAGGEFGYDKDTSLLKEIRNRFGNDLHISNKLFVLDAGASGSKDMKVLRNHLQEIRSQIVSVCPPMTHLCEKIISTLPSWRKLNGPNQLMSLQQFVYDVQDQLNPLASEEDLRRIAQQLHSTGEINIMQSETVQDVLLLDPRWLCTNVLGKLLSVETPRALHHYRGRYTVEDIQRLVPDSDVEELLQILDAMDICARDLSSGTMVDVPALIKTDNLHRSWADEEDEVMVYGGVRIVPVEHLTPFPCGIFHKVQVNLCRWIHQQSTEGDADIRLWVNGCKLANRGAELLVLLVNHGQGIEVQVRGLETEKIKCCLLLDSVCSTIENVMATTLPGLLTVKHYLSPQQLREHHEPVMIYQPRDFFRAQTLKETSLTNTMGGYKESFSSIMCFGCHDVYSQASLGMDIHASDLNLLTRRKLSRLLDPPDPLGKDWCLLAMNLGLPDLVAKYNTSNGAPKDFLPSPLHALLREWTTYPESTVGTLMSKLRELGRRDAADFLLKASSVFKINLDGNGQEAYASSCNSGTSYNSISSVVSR
Experimental: as §1, §2, §3, §4

PKCβ1 = PKCβ1 (Homo sapiens, UniProt P05771)
Experimental: as §1, §2, §3

PDK1 = PDK1 (Homo sapiens, UniProt O15530)
Experimental: as §1, §2, §3, §4

PKD1 = PKD1 (Homo sapiens, UniProt Q15139)
Experimental: as §1, §2, §3, §4

IRAK4 = IRAK4 (Homo sapiens, UniProt Q9NWZ3)
Experimental: as §1, §2, §3, §4

PBK = PBK (Homo sapiens, UniProt Q96KB5)
Experimental: as §1, §2, §3, §4

PKCγ = PKCγ (Homo sapiens, UniProt P05129)
Experimental: as §1, §2, §3, §4

p38α = p38α (Homo sapiens, UniProt Q16539)
Experimental: as §1, §2, §3, §4

Erk1 = Erk1 (Homo sapiens, UniProt P27361)
Sequence of Erk1 (P27361 whole entry): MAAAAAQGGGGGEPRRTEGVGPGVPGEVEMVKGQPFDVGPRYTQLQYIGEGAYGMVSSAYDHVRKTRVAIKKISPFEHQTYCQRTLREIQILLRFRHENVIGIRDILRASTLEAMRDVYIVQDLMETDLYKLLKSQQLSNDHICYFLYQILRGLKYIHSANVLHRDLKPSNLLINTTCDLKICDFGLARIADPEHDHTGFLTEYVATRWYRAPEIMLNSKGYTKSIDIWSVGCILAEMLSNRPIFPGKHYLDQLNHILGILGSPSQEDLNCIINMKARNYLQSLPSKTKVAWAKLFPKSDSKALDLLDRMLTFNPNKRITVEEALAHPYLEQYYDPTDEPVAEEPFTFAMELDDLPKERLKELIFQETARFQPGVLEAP
Experimental: as §1, §2, §3

PIK3CA/PIK3R1 = PIK3CA/PIK3R1 (Homo sapiens, UniProt P42336)
Experimental: as §1, §2, §3, §4

FGFR3(K650E) = FGFR3(K650E) (Homo sapiens, UniProt P22607, K650E)
Experimental: as §1, §2, §3, §4

PKD2 = PKD2 (Homo sapiens, UniProt Q9BZL6)
Experimental: as §1, §2, §3, §4

Sequence of GSK3β (P49841 whole entry): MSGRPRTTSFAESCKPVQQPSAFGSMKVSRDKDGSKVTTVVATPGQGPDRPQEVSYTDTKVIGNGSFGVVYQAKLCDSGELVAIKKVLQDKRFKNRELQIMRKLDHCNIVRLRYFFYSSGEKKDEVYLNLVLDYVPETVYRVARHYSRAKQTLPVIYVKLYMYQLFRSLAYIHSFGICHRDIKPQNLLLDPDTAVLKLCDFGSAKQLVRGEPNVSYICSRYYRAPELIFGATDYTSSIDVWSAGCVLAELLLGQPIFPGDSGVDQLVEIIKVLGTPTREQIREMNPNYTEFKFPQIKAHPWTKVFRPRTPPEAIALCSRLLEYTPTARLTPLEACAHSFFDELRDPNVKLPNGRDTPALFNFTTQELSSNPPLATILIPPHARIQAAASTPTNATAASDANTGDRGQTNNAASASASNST
Sequence of FLT3 (P36888 27-993): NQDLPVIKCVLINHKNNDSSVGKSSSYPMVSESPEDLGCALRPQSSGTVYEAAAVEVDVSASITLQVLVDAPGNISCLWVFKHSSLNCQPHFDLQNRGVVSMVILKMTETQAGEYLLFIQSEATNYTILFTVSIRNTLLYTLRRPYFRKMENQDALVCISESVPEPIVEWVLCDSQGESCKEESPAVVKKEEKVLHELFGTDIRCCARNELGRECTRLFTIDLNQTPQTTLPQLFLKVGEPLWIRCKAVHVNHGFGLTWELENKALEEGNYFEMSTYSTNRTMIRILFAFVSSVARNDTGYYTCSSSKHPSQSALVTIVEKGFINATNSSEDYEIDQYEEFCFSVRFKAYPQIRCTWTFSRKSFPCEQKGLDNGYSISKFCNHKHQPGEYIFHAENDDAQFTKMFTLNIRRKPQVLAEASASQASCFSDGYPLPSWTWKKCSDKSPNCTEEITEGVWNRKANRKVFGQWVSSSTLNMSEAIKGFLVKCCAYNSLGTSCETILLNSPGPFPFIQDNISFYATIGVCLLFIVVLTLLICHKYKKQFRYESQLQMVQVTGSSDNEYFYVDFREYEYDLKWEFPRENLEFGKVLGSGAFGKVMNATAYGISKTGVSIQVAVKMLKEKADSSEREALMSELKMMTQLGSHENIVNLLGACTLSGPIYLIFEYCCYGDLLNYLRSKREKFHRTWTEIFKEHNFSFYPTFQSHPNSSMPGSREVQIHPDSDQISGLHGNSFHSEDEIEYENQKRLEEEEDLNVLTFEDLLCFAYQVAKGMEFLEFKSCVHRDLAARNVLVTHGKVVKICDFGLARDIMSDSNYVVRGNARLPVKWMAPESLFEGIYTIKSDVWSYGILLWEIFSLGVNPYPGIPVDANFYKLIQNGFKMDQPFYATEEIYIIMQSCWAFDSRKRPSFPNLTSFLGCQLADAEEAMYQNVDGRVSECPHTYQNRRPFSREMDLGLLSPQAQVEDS
Text for MAP3K4_Cascade: as §1
The assay utilized was identical to that of the single point inhibitory activity determination (MSA) but run in dose response.

## CC[C@@]1(c2ccccc2)C2=C(CC(C)(C)CC2=O)Nc2n[nH]cc21 [BRD0705]
RSK3
  % Inhibition at 10 μM: −7.9%
GSK3β
  % Inhibition at 10 μM: 96.5%
GSK3β; read-out: IC50 GSK3β
  IC50: 488 nM
FLT3
  % Inhibition at 10 μM: 25.0%
MAP3K4_Cascade
  % Inhibition at 10 μM: 11.6%
RAF1_Cascade
  % Inhibition at 10 μM: 7.5%
TRKC
  % Inhibition at 10 μM: 6.4%
PLK2
  % Inhibition at 10 μM: 4.0%
IRAK1
  % Inhibition at 10 μM: 3.1%
MAP2K1_Cascade
  % Inhibition at 10 μM: 3.0%
MAP3K1_Cascade
  % Inhibition at 10 μM: 1.8%
Erk2
  % Inhibition at 10 μM: 1.6%
SGK2
  % Inhibition at 10 μM: 0.8%
KIT
  % Inhibition at 10 μM: −0.3%
LYNa
  % Inhibition at 10 μM: −0.4%
TEC
  % Inhibition at 10 μM: −0.4%
HIPK2
  % Inhibition at 10 μM: −0.5%
DCAMKL2
  % Inhibition at 10 μM: −0.5%
DDR2
  % Inhibition at 10 μM: −1.4%
DDR1
  % Inhibition at 10 μM: −2.0%
CK1γ3
  % Inhibition at 10 μM: −2.1%
SRPK2
  % Inhibition at 10 μM: −2.5%
RET(S891A)
  % Inhibition at 10 μM: −3.1%
JNK1
  % Inhibition at 10 μM: −3.9%
IKKε
  % Inhibition at 10 μM: −4.5%
ACK
  % Inhibition at 10 μM: −4.5%
PKCε
  % Inhibition at 10 μM: −4.5%
CaMK2γ
  % Inhibition at 10 μM: −4.7%
RET
  % Inhibition at 10 μM: −5.6%
ROCK2
  % Inhibition at 10 μM: −5.8%
DAPK1
  % Inhibition at 10 μM: −6.0%
PKCβ1
  % Inhibition at 10 μM: −6.5%
PDK1
  % Inhibition at 10 μM: −6.7%
PKD1
  % Inhibition at 10 μM: −6.8%
IRAK4
  % Inhibition at 10 μM: −7.4%
PBK
  % Inhibition at 10 μM: −8.0%
PKCγ
  % Inhibition at 10 μM: −8.0%
p38α
  % Inhibition at 10 μM: −8.5%
Erk1
  % Inhibition at 10 μM: −9.8%
PIK3CA/PIK3R1
  % Inhibition at 10 μM: −10.7%
FGFR3(K650E)
  % Inhibition at 10 μM: −15.5%
PKD2
  % Inhibition at 10 μM: −22.1%

## CC(C)(C)Cc1[nH]nc2c1[C@](C)(c1ccccc1)C1=C(CC(C)(C)CC1=O)N2 [BRD3731]
RSK3; 10 μM
  % Inhibition 10 μM: 35.5%
GSK3β
  % Inhibition 10 μM: 100.7%
  IC50: 27 nM
FLT3; 10 μM
  % Inhibition 10 μM: 13.8%
MAP3K4_Cascade; 10 μM
  % Inhibition 10 μM: 12.4%
RAF1_Cascade; 10 μM
  % Inhibition 10 μM: −6.6%
TRKC; 10 μM
  % Inhibition 10 μM: 12.1%
PLK2; 10 μM
  % Inhibition 10 μM: 8.5%
IRAK1; 10 μM
  % Inhibition 10 μM: 1.2%
MAP2K1_Cascade; 10 μM
  % Inhibition 10 μM: 3.1%
MAP3K1_Cascade; 10 μM
  % Inhibition 10 μM: 4.0%
Erk2; 10 μM
  % Inhibition 10 μM: 0.9%
SGK2; 10 μM
  % Inhibition 10 μM: 10.4%
KIT; 10 μM
  % Inhibition 10 μM: −1.7%
LYNa; 10 μM
  % Inhibition 10 μM: −0.3%
TEC; 10 μM
  % Inhibition 10 μM: 2.3%
HIPK2; 10 μM
  % Inhibition 10 μM: 3.2%
DCAMKL2; 10 μM
  % Inhibition 10 μM: −1.3%
DDR2; 10 μM
  % Inhibition 10 μM: 7.9%
DDR1; 10 μM
  % Inhibition 10 μM: 7.6%
CK1γ3; 10 μM
  % Inhibition 10 μM: −2.1%
SRPK2; 10 μM
  % Inhibition 10 μM: 6.4%
RET(S891A); 10 μM
  % Inhibition 10 μM: −0.6%
JNK1; 10 μM
  % Inhibition 10 μM: −6.0%
IKKε; 10 μM
  % Inhibition 10 μM: −1.4%
ACK; 10 μM
  % Inhibition 10 μM: −1.3%
PKCε; 10 μM
  % Inhibition 10 μM: 1.8%
CaMK2γ; 10 μM
  % Inhibition 10 μM: −1.2%
RET; 10 μM
  % Inhibition 10 μM: 3.0%
ROCK2; 10 μM
  % Inhibition 10 μM: −0.5%
DAPK1; 10 μM
  % Inhibition 10 μM: −3.4%
PKCβ1; 10 μM
  % Inhibition 10 μM: 4.1%
PDK1; 10 μM
  % Inhibition 10 μM: 2.0%
PKD1; 10 μM
  % Inhibition 10 μM: 8.9%
IRAK4; 10 μM
  % Inhibition 10 μM: 0.1%
PBK; 10 μM
  % Inhibition 10 μM: 0.6%
PKCγ; 10 μM
  % Inhibition 10 μM: 5.0%
p38α; 10 μM
  % Inhibition 10 μM: 0.9%
Erk1; 10 μM
  % Inhibition 10 μM: 3.4%
PIK3CA/PIK3R1; 10 μM
  % Inhibition 10 μM: 42.5%
FGFR3(K650E); 10 μM
  % Inhibition 10 μM: 0.7%
PKD2; 10 μM
  % Inhibition 10 μM: 17.2%
